Results published in US20250179059A1 (The Regents of the University of California, priority 2021, published 2025).
Like-named read-outs stand apart in the source and are kept apart here.

Columns and labels:
[1] = target: T1, human BRD4 bromodomain II (Homo sapiens, UniProt O60885); experiment: Bromodomain binding assay (AlphaScreen), BRD4 BDII
T1 construct: human BRD4 bromodomain II [based on Genbank NM_058243, residues 349-460]; host or cells: E. coli
In short: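 AlphaScreen competition with biotinylated H4 peptide (aa 1-21, K5/K8/K12/K16Ac), using nickel-chelate acceptor and streptavidin donor beads. Targets were His6-BRD4 BDI (44-170) or BDII (349-460), with a 30 min compound preincubation over a 10-point 3-fold series. IC50 was fitted from percentage peptide binding.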

[2] = test system: human SKM-1 acute myeloid leukemia cells; experiment: SKM-1 antiproliferation cell-based assay (ATPlite)
In short: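 Log-phase cells in RPMI 1640/15% FBS were seeded at 34722 cells/mL and exposed for 4 days to nine-concentration DMSO serial dilutions in triplicate. Viability was read as ATP luminescence (ATPlite 1step), and IC50 values came from variable-slope non-linear regression.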

[3] = AlphaScreen assay, Table C2, read-out: BRD4 BDII IC50
[4] = Homo sapiens, SKM-1, 96 h, SKM-1 antiproliferation assay, 4 days, Table C2
[5] = BRD4 BDII AlphaScreen assay, read-out: BRD4 BD2 IC50
[6] = Homo sapiens, SKM-1, SKM-1 antiproliferation assay

Row | IC50 [1, 3] | GI50 [2, 4] | IC50 [1, 5] | GI50 [2, 6] | GI50 ([2]; SKM-1 antiproliferation assay) | Compound
1 | > 100 nM | ≥ 3000 nM |  |  |  | CN1CCCN(c2ccc(-c3cccc(-c4ccnc(N5CCNCC5)c4)c3O)cc2F)C1=O [Example 288, 1-(3-fluoro-2′-hydroxy-3′-(2-(piperazin-1-yl)pyridin-4-yl)-[1,1′-biphenyl]-4-yl)-3-methyltetrahydropyrimidin-2(1H)-one]
2 |  |  | 0.01 to 1 nM | 0.3 to 30 nM |  | Cc1cc(-c2ccc(-n3ccn(C)c3=O)c(Cl)c2)c(O)c(-c2cc(F)c(F)c(N3CCN(C(C)(C)C)CC3)c2)n1 [Example 1026, 1-(4-(2-(3-(4-(tert-butyl)piperazin-1-yl)-4,5-difluorophenyl)-3-hydroxy-6-methylpyridin-4-yl)-2-chlorophenyl)-3-methyl-1H-imidazol-2(3H)-one]
3 | 1 to 10 nM | 30 to 300 nM |  |  |  | CN1CCN(c2ccc(-c3cc(F)cc(-c4ccc(=O)n(C5CCNCC5)c4)c3O)cc2Cl)C1=O [Example 477, 5-(3′-chloro-5-fluoro-2-hydroxy-4′-(3-methyl-2-oxoimidazolidin-1-yl)-[1,1′-biphenyl]-3-yl)-1-(piperidin-4-yl)pyridin-2(1H)-one]
4 |  |  | 10 to 100 nM | 30 to 300 nM |  | CC(C)(C)N1CCN(c2cccc(-c3nccc(-c4ccc(-n5cc[nH]c5=O)c(Cl)c4)c3O)c2)CC1 [Example 1038, 1-(4-(2-(3-(4-(tert-butyl)piperazin-1-yl)phenyl)-3-hydroxypyridin-4-yl)-2-chlorophenyl)-1H-imidazol-2(3H)-one]
5 | 1 to 10 nM | 300 to 3000 nM |  |  |  | CN1CCN(c2ccc(-c3cc(C4CC4)cc(-c4ccnc(N5CCNCC5)c4)c3O)cc2Cl)C1=O [Example 316, 1-(3-chloro-5′-cyclopropyl-2′-hydroxy-3′-(2-(piperazin-1-yl)pyridin-4-yl)-[1,1′-biphenyl]-4-yl)-3-methylimidazolidin-2-one]
6 | 0.01 to 1 nM | 0.3 to 30 nM |  |  |  | CC(C)N1CCN(c2cc(-c3cc(F)cc(-c4ccc(-n5ccn(C)c5=O)c(Cl)c4)c3O)cc(=O)n2C)CC1 [Example 717, 4-(3′-chloro-5-fluoro-2-hydroxy-4′-(3-methyl-2-oxo-2,3-dihydro-1H-imidazol-1-yl)-[1,1′-biphenyl]-3-yl)-6-(4-isopropylpiperazin-1-yl)-1-methylpyridin-2(1H)-one]
7 | 1 to 10 nM | 0.3 to 30 nM |  |  |  | COc1ncc(-c2cc(F)cc(-c3ccc(-n4ccn(C)c4=O)c(Cl)c3)c2O)cc1N1CCN(C(C)(C)C2CC2)CC1 [Example 847, 1-(3-chloro-3′-(5-(4-(2-cyclopropylpropan-2-yl)piperazin-1-yl)-6-methoxypyridin-3-yl)-5′-fluoro-2′-hydroxy-[1,1′-biphenyl]-4-yl)-3-methyl-1H-imidazol-2(3H)-one]
8 | 0.01 to 1 nM | 0.3 to 30 nM |  |  |  | Cn1ccn(-c2ccc(-c3cc(F)cc(-c4cccc(N5CC[C@@](C)(N)C5)c4)c3O)cc2Cl)c1=O [Example 758, (R)-1-(3″-(3-amino-3-methylpyrrolidin-1-yl)-3-chloro-5′-fluoro-2′-hydroxy-[1,1′:3′,1″-terphenyl]-4-yl)-3-methyl-1H-imidazol-2(3H)-one]
9 | 1 to 10 nM | 0.3 to 30 nM |  |  |  | Cn1ccn(-c2ccc(-c3cc(F)cc(-c4cc(N5CC[C@H](N)C5)c5cn[nH]c5c4)c3O)cc2Cl)c1=O [Example 558, (S)-1-(3′-(4-(3-aminopyrrolidin-1-yl)-1H-indazol-6-yl)-3-chloro-5′-fluoro-2′-hydroxy-[1,1′-biphenyl]-4-yl)-3-methyl-1H-imidazol-2(3H)-one]
10 |  |  | > 100 nM |  | 300 to 3000 nM | CC(C)c1cc(-c2cc(F)cc(-c3cccc(N4CCN(C(C)(C)C)CC4)c3)c2O)cc(Cl)c1-n1ccn(C)c1=O [Example 934, (R)-1-(3″-(4-(tert-butyl)piperazin-1-yl)-3-chloro-5′-fluoro-2′-hydroxy-5-isopropyl-[1,1′:3′,1″-terphenyl]-4-yl)-3-methyl-1,3-dihydro-2H-imidazol-2-one]
11 | 0.01 to 1 nM | 30 to 300 nM |  |  |  | C[C@@H]1CN(c2cc(-c3cc(F)cc(-c4ccc(-n5ccn(C)c5=O)c(Cl)c4)c3O)cn(CCCO)c2=O)CCN1 [Example 630, (R)-5-(3′-chloro-5-fluoro-2-hydroxy-4′-(3-methyl-2-oxo-2,3-dihydro-IH-imidazol-1-yl)-[1,1′-biphenyl]-3-yl)-1-(3-hydroxypropyl)-3-(3-methylpiperazin-1-yl)pyridin-2(1H)-one]
12 | 1 to 10 nM | 30 to 300 nM |  |  |  | CC(=O)Nc1ccc(-c2cccc(-c3cc(N)nc(N4CCNCC4)c3)c2O)cc1F [Example 348, N-(3′-(2-amino-6-(piperazin-1-yl)pyridin-4-yl)-3-fluoro-2′-hydroxy-[1,1′-biphenyl]-4-yl)acetamide]
13 |  |  | 0.01 to 1 nM | 0.3 to 30 nM |  | [2H]C([2H])([2H])Oc1ncc(-c2cc(F)cc(-c3ccc(-n4ccn(C)c4=O)c(Cl)c3)c2O)cc1N1CCN(C(C)(C)C)CC1 [Example 926, 1-(3′-(5-(4-(tert-Butyl)piperazin-1-yl)-6-(methoxy-d3)pyridin-3-yl)-3-chloro-5′-fluoro-2′-hydroxy-[1,1′-biphenyl]-4-yl)-3-methyl-1,3-dihydro-2H-imidazol-2-one]
14 | 0.01 to 1 nM | 0.3 to 30 nM |  |  |  | CN1CCN(c2cc(-c3cc(F)cc(-c4ccc(-n5ccn(C)c5=O)c(Cl)c4)c3O)cc3[nH]ncc23)CC1 [Example 588, 1-(3-chloro-5′-fluoro-2′-hydroxy-3′-(4-(4-methylpiperazin-1-yl)-1H-indazol-6-yl)-[1,1′-biphenyl]-4-yl)-3-methyl-1H-imidazol-2(3H)-one]
15 | 1 to 10 nM | 0.3 to 30 nM |  |  |  | Cn1ccn(-c2ccc(-c3cc(F)cc(-c4cc(N5CCNC(C)(C)C5)c5cn[nH]c5c4)c3O)cc2Cl)c1=O [Example 589, 1-(3-chloro-3′-(4-(3,3-dimethylpiperazin-1-yl)-1H-indazol-6-yl)-5′-fluoro-2′-hydroxy-[1,1′-biphenyl]-4-yl)-3-methyl-1H-imidazol-2(3H)-one]
16 | 10 to 100 nM | 300 to 3000 nM |  |  |  | COc1cc(-c2cccc(-c3ccc(NC(C)=O)c(F)c3)c2O)cc(N2CCNCC2)n1 [Example 339, N-(3-fluoro-2′-hydroxy-3′-(2-methoxy-6-(piperazin-1-yl)pyridin-4-yl)-[1,1′-biphenyl]-4-yl)acetamide]
17 |  |  | 1 to 10 nM | 30 to 300 nM |  | CC(C)N1CC2CN(c3cccc(-c4cc(F)cc(-c5ccc(-n6ccn(C)c6=O)c(Cl)c5)c4O)c3)CC2C1 (centres unmarked) [Example 946, 1-(3-chloro-5′-fluoro-2′-hydroxy-3″-(5-isopropylhexahydropyrrolo[3,4-c]pyrrol-2(1H)-yl)-[1,1′:3′,1″-terphenyl]-4-yl)-3-methyl-1,3-dihydro-2H-imidazol-2-one]
18 |  |  | 1 to 10 nM | 0.3 to 30 nM |  | CN(C)c1ncc(-c2nccc(-c3ccc(-n4ccn(C)c4=O)c(Cl)c3)c2O)cc1N1CCN(C(C)(C)C)CC1 [Example 988, 1-(4-(5′-(4-(tert-butyl)piperazin-1-yl)-6′-(dimethylamino)-3-hydroxy-[2,3′-bipyridin]-4-yl)-2-chlorophenyl)-3-methyl-1H-imidazol-2(3H)-one]
19 | 1 to 10 nM | 30 to 300 nM |  |  |  | Cn1ccn(-c2ccc(-c3cc(F)cc(-c4ccnc(N5CCN6C(=O)OC[C@@H]6C5)c4)c3O)cc2Cl)c1=O [Example 560, (S)-7-(4-(3′-chloro-5-fluoro-2-hydroxy-4′-(3-methyl-2-oxo-2,3-dihydro-1H-imidazol-1-yl)-[1,1′-biphenyl]-3-yl)pyridin-2-yl)tetrahydro-1H-oxazolo[3,4-a]pyrazin-3(5H)-one]
20 | 10 to 100 nM | 30 to 300 nM |  |  |  | CN1CCN(c2ccc(-c3cc(F)cc(-c4ccnc(N5CCNCC5)c4)c3N)cc2Cl)C1=O [Example 406, 1-(2′-amino-3-chloro-5′-fluoro-3′-(2-(piperazin-1-yl)pyridin-4-yl)-[1,1′-biphenyl]-4-yl)-3-methylimidazolidin-2-one]
21 |  |  | 10 to 100 nM | 300 to 3000 nM |  | Cn1ccn(-c2ccc(-c3cc(F)cc(-c4cccc(-c5ccc(CN)cc5)c4)c3O)cc2Cl)c1=O [Example 863]
22 |  |  | 10 to 100 nM | 30 to 300 nM |  | CCOc1cc(-c2cc(F)cc(-c3cccc(N4CCN(C(C)(C)C)CC4)c3)c2O)cc(Cl)c1-n1ccn(C)c1=O [Example 925, 1-(3″-(4-(tert-Butyl)piperazin-1-yl)-3-chloro-5-ethoxy-5′-fluoro-2′-hydroxy-[1,1′:3′,1″-terphenyl]-4-yl)-3-methyl-1H-imidazol-2(3H)-one]

Row | Compound | IC50 [1, 3] | GI50 [2, 4] | IC50 [1, 5] | GI50 [2, 6] | GI50 ([2]; SKM-1 antiproliferation assay)
23 | Cn1ccn(-c2ccc(-c3cc(F)cc(-c4cc(N5CC6CCC(C5)N6)c5cn[nH]c5c4)c3O)cc2Cl)c1=O [Example 573] | 0.01 to 1 nM | 0.3 to 30 nM |  |  | 
24 | Cn1ccn(-c2ccc(-c3cc(F)cc(-c4cncc(N5CC6CCC(C5)N6)c4)c3O)cc2Cl)c1=O [Example 512, 1-(3′-(5-(3,8-diazabicyclo[3.2.1]octan-3-yl)pyridin-3-yl)-3-chloro-5′-fluoro-2′-hydroxy-[1,1′-biphenyl]-4-yl)-3-methyl-1H-imidazol-2(3H)-one] | 1 to 10 nM | 0.3 to 30 nM |  |  | 
25 | COc1ncc(-c2nc(C)cc(-c3ccc(-n4ccn(C)c4=O)c(Cl)c3)c2O)cc1N1CC2CCC(C1)N2C(C)C [Example 1039, 1-(2-chloro-4-(3-hydroxy-5′-(8-isopropyl-3,8-diazabicyclo[3.2.1]octan-3-yl)-6′-methoxy-6-methyl-[2,3′-bipyridin]-4-yl)phenyl)-3-methyl-1H-imidazol-2(3H)-one] |  |  | 1 to 10 nM | 0.3 to 30 nM | 
